Source: patent US8889370B2, “Method of determining inhibitors of coagulation” (Siemens Healthcare Diagnostics Products GmbH, priority 2010, dated 2014)
Where two headings read alike, the source gives them in different places.

Biological target: T1, bovine thrombin (Bos taurus, UniProt P00735)
T1 construct: a lyophilized thrombin reagent consisting of bovine thrombin; purchased Siemens Healthcare Diagnostics (hirudin activity assay, thrombin reagent)
Test: Determination of the thrombin binding constant (Ki) of peptide aldehyde ligands, chromogenic assay with hirudin activity assay reagents, Dixon plot
Assay type: biochemical
Protocol: The kinetic data of the peptide aldehyde ligands were determined in chromogenic assay formats by measuring the rate of hydrolysis of chromogenic peptide substrates which compete with the peptide aldehyde ligands for binding to the active site of the particular enzyme, at various substrate concentrations and peptide aldehyde-ligand concentrations. The binding constant (Ki) was determined by a known method (Dixon, M., 1953, Biochem J, 55, 170-171).
The thrombin binding constant was determined using the reagents of the hirudin activity assay from Siemens Healthcare Diagnostics. The hirudin activity assay comprises a lyophilized thrombin reagent consisting of bovine thrombin, a heparin inhibitor and aprotinin, a lyophilized chromogenic substrate reagent with a concentration of 4 mmol/l tos-Gly-Pro-Arg-ANBA-IPA (tosylglycyl-L-propyl-arginyl-5-amino-2-nitrobenzoyliso-propylamide) after reconstitution. The thrombin reagent was reconstituted in buffer solution (trishydroxymethylamino-methane, NaCl, pH 8.2). Dilutions of the substrate reagent were prepared with deionized water. The peptide aldehyde ligands prepared according to example 1 were dissolved in water and used as sample. The B-r-G-R—H ligand was used in a concentration range from 26.1 to 0.815 μM. The B-f-P—R—H ligand was used in a concentration range from 26.1 to 0 μM. The assays were carried out automatically in a BCS® XP coagulation analyzer (Siemens Healthcare Diagnostics, Marburg, Germany).
A reaction mix was mixed together as follows:
30 μl of sample (peptide aldehyde ligand B-r-G-R—H or B-f-P—R—H),
150 μl of thrombin reagent,
50 μl of chromogenic substrate reagent (tos-Gly-Pro-Arg-ABNA-IPA).
The reaction rate in mE/min was determined on the basis of the increase in optical density of the reaction mix at a wavelength of 405 nm. For this, the optical density of the reaction mixes was determined in time intervals of from 15 to 40 seconds for the B-f-P—R—H peptide aldehyde ligand or 5-16 seconds for the B-r-G-R—H peptide aldehyde ligand.
Reversibly and irreversibly binding ligands can be distinguished by their reaction kinetics. Plotting 1/v, where v is the reaction rate, as a function of the ligand concentration (i) at a constant concentration (S) of a cleavable substrate produces a line. When using two or more different substrate concentrations (S1, S2 . . . SN), said lines intersect at a single point. The x axis value of this point corresponds to −Ki, with Ki corresponding to the binding constant, see, for example, Klebe, G., Wirkstoffdesign, 2nd edition, Spektrum Akademischer Verlag, Heidelberg, Germany, 2009, pages 52-62 and Dixon, M., 1953, Biochem J, 55, 170-171. With an irreversible inhibition, the curves meet at a single point on the x axis, which again corresponds to −Ki.

In the case of `N=C(N)NCCC[C@@H](C=O)NC(=O)[C@@H]1CCCN1C(=O)[C@@H](Cc1ccccc1)NC(=O)CCC(=O)NCCCOCCOCCOCCCNC(=O)CCCC[C@@H]1SC[C@@H]2NC(=O)N[C@@H]21` [B-f-P-R-H, biotinyl-Ttds-D-Phe-Pro-Arg-H], the 1/Reaction rate (CB-f-P-R-H 0.02038 μM, Csubstrate = 0.5 mM, not in the linear region, excluded from regression) is reported as 1.869 min/E, the 1/Reaction rate (CB-f-P-R-H 0.02038 μM, Csubstrate = 2 mM) is reported as 0.4138 min/E and the 1/Reaction rate (CB-f-P-R-H 0.02038 μM, Csubstrate = 4 mM) is reported as 0.3846 min/E. The 1/Reaction rate (CB-f-P-R-H 0.04076 μM, Csubstrate = 0.5 mM, not in the linear region, excluded from regression) was 1.747 min/E, the 1/Reaction rate (CB-f-P-R-H 0.04076 μM, Csubstrate = 2 mM) was 0.4247 min/E and the 1/Reaction rate (CB-f-P-R-H 0.04076 μM, Csubstrate = 4 mM) was 0.393 min/E. For the same molecule, the 1/Reaction rate (CB-f-P-R-H 0.08152 μM, Csubstrate = 0.5 mM) was 1.565 min/E, the 1/Reaction rate (CB-f-P-R-H 0.08152 μM, Csubstrate = 2 mM) was 0.4594 min/E and the 1/Reaction rate (CB-f-P-R-H 0.08152 μM, Csubstrate = 4 mM) was 0.4143 min/E. For the same molecule, the 1/Reaction rate (CB-f-P-R-H 0.16304 μM, Csubstrate = 0.5 mM) was 1.711 min/E, the 1/Reaction rate (CB-f-P-R-H 0.16304 μM, Csubstrate = 2 mM) was 0.521 min/E and the 1/Reaction rate (CB-f-P-R-H 0.16304 μM, Csubstrate = 4 mM) was 0.4395 min/E. It also gave a 1/Reaction rate (CB-f-P-R-H 0.20380 μM, Csubstrate = 0.5 mM) of 1.638 min/E, a 1/Reaction rate (CB-f-P-R-H 0.20380 μM, Csubstrate = 2 mM) of 0.5061 min/E and a 1/Reaction rate (CB-f-P-R-H 0.20380 μM, Csubstrate = 4 mM) of 0.4298 min/E. The 1/Reaction rate (CB-f-P-R-H 0.32609 μM, Csubstrate = 0.5 mM) was 2.382 min/E, the 1/Reaction rate (CB-f-P-R-H 0.32609 μM, Csubstrate = 2 mM) was 0.6613 min/E and the 1/Reaction rate (CB-f-P-R-H 0.32609 μM, Csubstrate = 4 mM) was 0.5012 min/E. For the same molecule, the 1/Reaction rate (CB-f-P-R-H 0.40761 μM, Csubstrate = 0.5 mM) was 2.645 min/E, the 1/Reaction rate (CB-f-P-R-H 0.40761 μM, Csubstrate = 2 mM) was 0.7008 min/E and the 1/Reaction rate (CB-f-P-R-H 0.40761 μM, Csubstrate = 4 mM) was 0.5334 min/E. It also gave a 1/Reaction rate (CB-f-P-R-H 0.65217 μM, Csubstrate = 0.5 mM) of 4.162 min/E, a 1/Reaction rate (CB-f-P-R-H 0.65217 μM, Csubstrate = 2 mM) of 1.029 min/E and a 1/Reaction rate (CB-f-P-R-H 0.65217 μM, Csubstrate = 4 mM) of 0.6737 min/E. It also gave a 1/Reaction rate (CB-f-P-R-H 0.81522 μM, Csubstrate = 0.5 mM) of 4.775 min/E, a 1/Reaction rate (CB-f-P-R-H 0.81522 μM, Csubstrate = 2 mM) of 1.169 min/E and a 1/Reaction rate (CB-f-P-R-H 0.81522 μM, Csubstrate = 4 mM) of 0.7274 min/E. It also gave a 1/Reaction rate (CB-f-P-R-H 1.30435 μM, Csubstrate = 0.5 mM) of 7.175 min/E, a 1/Reaction rate (CB-f-P-R-H 1.30435 μM, Csubstrate = 2 mM) of 1.793 min/E and a 1/Reaction rate (CB-f-P-R-H 1.30435 μM, Csubstrate = 4 mM) of 0.9974 min/E. For the same molecule, the 1/Reaction rate (CB-f-P-R-H 1.63043 μM, Csubstrate = 0.5 mM) was 8.491 min/E, the 1/Reaction rate (CB-f-P-R-H 1.63043 μM, Csubstrate = 2 mM) was 2.164 min/E and the 1/Reaction rate (CB-f-P-R-H 1.63043 μM, Csubstrate = 4 mM) was 1.183 min/E. For the same molecule, the 1/Reaction rate (CB-f-P-R-H 2.60870 μM, Csubstrate = 0.5 mM) was 13.19 min/E, the 1/Reaction rate (CB-f-P-R-H 2.60870 μM, Csubstrate = 2 mM) was 3.37 min/E and the 1/Reaction rate (CB-f-P-R-H 2.60870 μM, Csubstrate = 4 mM) was 1.775 min/E. For the same molecule, the 1/Reaction rate (CB-f-P-R-H 3.26087 μM, Csubstrate = 0.5 mM) was 15.77 min/E, the 1/Reaction rate (CB-f-P-R-H 3.26087 μM, Csubstrate = 2 mM) was 4.026 min/E and the 1/Reaction rate (CB-f-P-R-H 3.26087 μM, Csubstrate = 4 mM) was 2.13 min/E. It also gave a 1/Reaction rate (CB-f-P-R-H 5.21739 μM, Csubstrate = 0.5 mM) of 24.76 min/E, a 1/Reaction rate (CB-f-P-R-H 5.21739 μM, Csubstrate = 2 mM) of 6.165 min/E and a 1/Reaction rate (CB-f-P-R-H 5.21739 μM, Csubstrate = 4 mM) of 3.251 min/E. It also gave a 1/Reaction rate (CB-f-P-R-H 6.52174 μM, Csubstrate = 0.5 mM) of 32.28 min/E, a 1/Reaction rate (CB-f-P-R-H 6.52174 μM, Csubstrate = 2 mM) of 7.856 min/E and a 1/Reaction rate (CB-f-P-R-H 6.52174 μM, Csubstrate = 4 mM) of 4.089 min/E. It also gave a 1/Reaction rate (CB-f-P-R-H 9.78261 μM, Csubstrate = 0.5 mM) of 43.9 min/E, a 1/Reaction rate (CB-f-P-R-H 9.78261 μM, Csubstrate = 2 mM) of 11.18 min/E and a 1/Reaction rate (CB-f-P-R-H 9.78261 μM, Csubstrate = 4 mM) of 5.843 min/E. The 1/Reaction rate (CB-f-P-R-H 13.04348 μM, Csubstrate = 0.5 mM) was 59.12 min/E, the 1/Reaction rate (CB-f-P-R-H 13.04348 μM, Csubstrate = 2 mM) was 14.43 min/E and the 1/Reaction rate (CB-f-P-R-H 13.04348 μM, Csubstrate = 4 mM) was 7.611 min/E. For the same molecule, the 1/Reaction rate (CB-f-P-R-H 16.30435 μM, Csubstrate = 0.5 mM) was 74.55 min/E, the 1/Reaction rate (CB-f-P-R-H 16.30435 μM, Csubstrate = 2 mM) was 18.09 min/E and the 1/Reaction rate (CB-f-P-R-H 16.30435 μM, Csubstrate = 4 mM) was 9.302 min/E. The 1/Reaction rate (CB-f-P-R-H 26.08696 μM, Csubstrate = 0.5 mM) was 121.7 min/E, the 1/Reaction rate (CB-f-P-R-H 26.08696 μM, Csubstrate = 2 mM) was 28.41 min/E and the 1/Reaction rate (CB-f-P-R-H 26.08696 μM, Csubstrate = 4 mM) was 14.59 min/E. The “Intersect of regression curve 1/reaction rate vs ligand concentration” value (“Intersect … vs ligand concentration” below) (Csubstrate 0.5 mM) was 0.9175 min/E, the “Slope of regression curve 1/reaction rate vs ligand concentration” value (shortened to “Slope … vs ligand concentration”) (Csubstrate 0.5 mM) was 4.5718 min/E μM and the “Intersect … vs ligand concentration” value (Csubstrate 2 mM) was 0.04059 min/E. The “Slope … vs ligand concentration” value (Csubstrate 2 mM) was 1.0812 min/E μM, the “Intersect … vs ligand concentration” value (Csubstrate 4 mM) was 0.3497 min/E and the “Slope … vs ligand concentration” value (Csubstrate 4 mM) was 0.5500 min/E μM. The Ki (average of three Ki values, read-out: KiM average thrombin binding constant) was 131 nM, the Ki (intersection of regression curves Csubstrate 2 and 0.5 mM, read-out: Ki2&3 thrombin binding constant) was 147 nM and the Ki (intersection of regression curves Csubstrate 4 and 0.5 mM, read-out: Ki1&3 thrombin binding constant) was 141 nM. For the same molecule, the Ki (intersection of regression curves Csubstrate 4 and 2 mM, read-out: Ki1&2 thrombin binding constant) was 106 nM and the “binding of the peptide aldehyde with thrombin (reversible or irreversible)” value (intersections of regression curves not on the x axis) was “reversible”.
